Experiments:
Assay type in all cases: cell-based
[1] = system: NF-κB control cells; experiment: NF-κB reporter control cells (secreted alkaline phosphatase); conditions: at 100 ng/mL, 16-20 hours
Protocol: (§1) Toll-like receptors (TLR) are known to interact with a number of natural and synthetic molecules that can function as immune adjuvants. Examples of these molecules are Poly (I:C) polynucleotides, lipopolysaccharide and CpG-containing polynucleotides. The interaction of non-DNA base-containing polynucleotides (SEQ ID NOs: 1-3) to interact with TLR and induce down-stream signaling was tested by assessing NF-κB activation in HEK293 cells expressing human TLR2, 3, 4, 5, 7, 8 and 9. TLR engagement was determined by measurement of secreted alkaline phosphatase, under the control of a reporter inducible by NF-κB. Appropriate positive controls were used for each TLR. The non-DNA base-containing polynucleotides were dissolved in sterile water at a concentration of 100 μg/mL, and used at a final concentration of 10 μg/mL. HEK293 cells containing the appropriate TLR and NF-κB reporting system (InvivoGen, San Diego, Calif., USA) were placed in wells of 96 well plates (25,000-50,000 cells, in a final volume of 200 μL medium designed for the detection of NF-κB induced secreted alkaline phosphatase expression), and incubated with non-DNA base-containing polynucleotides or positive controls for 16-20 hours. TLR activating activity was determined by measurement of absorbance at 650 nm wavelength using a Coulter AD340C absorbance detector. The results shown are expressed as Optical Density (OD).

[2] = molecular target: T1, human TLR3 (Homo sapiens, UniProt O15455); experiment: NF-κB activation (secreted alkaline phosphatase reporter) in HEK293 cells expressing human TLR3; conditions: HEK293/hTLR3 cell line; at 1 μg/mL; 16-20 hours
T1 construct: host or cells: HEK293
T1 sequence (O15455 24-904): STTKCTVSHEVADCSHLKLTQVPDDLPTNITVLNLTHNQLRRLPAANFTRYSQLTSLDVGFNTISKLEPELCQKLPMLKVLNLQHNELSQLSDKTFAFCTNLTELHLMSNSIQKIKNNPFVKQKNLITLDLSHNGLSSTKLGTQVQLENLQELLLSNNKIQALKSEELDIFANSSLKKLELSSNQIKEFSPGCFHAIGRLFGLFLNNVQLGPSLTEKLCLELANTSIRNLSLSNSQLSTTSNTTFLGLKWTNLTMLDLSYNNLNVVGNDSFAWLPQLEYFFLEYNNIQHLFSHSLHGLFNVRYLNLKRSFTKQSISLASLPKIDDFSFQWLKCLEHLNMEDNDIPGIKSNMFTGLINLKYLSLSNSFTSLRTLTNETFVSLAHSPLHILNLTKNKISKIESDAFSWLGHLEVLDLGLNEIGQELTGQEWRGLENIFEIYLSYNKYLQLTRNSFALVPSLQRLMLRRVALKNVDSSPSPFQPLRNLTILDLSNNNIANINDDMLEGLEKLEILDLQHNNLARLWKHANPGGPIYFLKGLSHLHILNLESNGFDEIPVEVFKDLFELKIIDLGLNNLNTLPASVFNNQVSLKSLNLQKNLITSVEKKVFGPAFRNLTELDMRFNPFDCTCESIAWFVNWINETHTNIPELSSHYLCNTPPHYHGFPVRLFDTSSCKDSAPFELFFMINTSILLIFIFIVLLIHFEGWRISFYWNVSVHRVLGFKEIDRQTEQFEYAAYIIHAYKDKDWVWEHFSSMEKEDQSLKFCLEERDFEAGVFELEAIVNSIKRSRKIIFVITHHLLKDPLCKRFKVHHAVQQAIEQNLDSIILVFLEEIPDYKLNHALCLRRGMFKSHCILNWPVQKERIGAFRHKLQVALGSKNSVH
Protocol: as §1

[3] = molecular target: T2, human TLR5 (Homo sapiens, UniProt O60602); experiment: NF-κB activation (secreted alkaline phosphatase reporter) in HEK293 cells expressing human TLR5; conditions: HEK293/hTLR5 cell line; at 100 ng/mL; 16-20 hours
T2 construct: host or cells: HEK293
T2 sequence (O60602 21-858): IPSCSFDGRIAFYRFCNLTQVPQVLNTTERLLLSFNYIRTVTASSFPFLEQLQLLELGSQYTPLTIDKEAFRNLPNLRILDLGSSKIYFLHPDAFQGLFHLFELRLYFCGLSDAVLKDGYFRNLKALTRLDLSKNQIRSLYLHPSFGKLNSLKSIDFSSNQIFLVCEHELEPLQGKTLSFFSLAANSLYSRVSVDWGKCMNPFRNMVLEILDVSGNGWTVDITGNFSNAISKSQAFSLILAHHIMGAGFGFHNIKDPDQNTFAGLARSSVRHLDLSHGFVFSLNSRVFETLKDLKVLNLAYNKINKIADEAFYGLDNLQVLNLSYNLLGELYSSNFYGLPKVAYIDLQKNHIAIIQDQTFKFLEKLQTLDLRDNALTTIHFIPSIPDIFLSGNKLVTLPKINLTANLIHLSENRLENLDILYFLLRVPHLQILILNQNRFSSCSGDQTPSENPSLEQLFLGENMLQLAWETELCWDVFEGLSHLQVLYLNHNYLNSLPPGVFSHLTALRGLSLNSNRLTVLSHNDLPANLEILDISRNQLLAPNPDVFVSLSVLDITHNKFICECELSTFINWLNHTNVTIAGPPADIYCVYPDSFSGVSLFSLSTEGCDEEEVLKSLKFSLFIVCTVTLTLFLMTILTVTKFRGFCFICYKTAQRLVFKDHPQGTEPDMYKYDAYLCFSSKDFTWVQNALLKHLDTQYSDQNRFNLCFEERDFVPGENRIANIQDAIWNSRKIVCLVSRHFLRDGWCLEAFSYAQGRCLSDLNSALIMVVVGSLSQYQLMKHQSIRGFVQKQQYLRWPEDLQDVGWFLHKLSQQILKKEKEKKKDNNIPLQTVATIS
Protocol: as §1

CCCCCCCCCCCCCC(=O)O[C@@H]1[C@@H](C)[C@@]2(O)[C@@H](C=C(CO)C[C@]3(O)C(=O)C(C)=C[C@@H]23)[C@@H]2C(C)(C)[C@]12OC(C)=O [PMA, reference compound]
Optical Density at 650 nm, NF-κB control cells, positive control [1]: 2.765

Poly (I:C) [reference compound]
TLR activation, Optical Density at 650 nm, hTLR3, positive control [2]: 2.547

B1: S. typhimurium flagellin: hTLR5 positive control (protein)
chain: AQVINTNSLSLLTQNNLNKSQSALGTAIERLSSGLRINSAKDDAAGQAIANRFTANIKGLTQASRNANDGISIAQTTEGALNEINNNLQRVRELAVQSANSTNSQSDLDSIQAEITQRLNEIDRVSGQTQFNGVKVLAQDNTLTIQVGANDGETIDIDLKQINSQTLGLDTLNVQQKYKVSDTAATVTGYADTTIALDNSTFKASATGLGGTDQKIDGDLKFDDTTGKYYAKVTVTGGTGKDGYYEVSVDKTNGEVTLAGGATSPLTGGLPATATEDVKNVQVANADLTEAKAALTAAGVTGTASVVKMSYTDNNGKTIDGGLAVKVGDDYYSATQNKDGSISINTTKYTADDGTSKTALNKLGGADGKTEVVSIGGKTYAASKAEGHNFKAQPDLAEAAATTTENPLQKIDAALAQVDTLRSDLGAVQNRFNSAITNLGNTVNNLTSARSRIEDSDYATEVSNMSRAQILQQAGTSVLAQANQVPQNVLSLLR
TLR activation, Optical Density at 650 nm, hTLR5, positive control [3]: 2.593

— patent publication US20110111016A1, “NON-DNA BASE-CONTAINING POLYNUCLEOTIDE COMPOSITIONS AND THEIR USE FOR THE MODULATION OF IMMUNE RESPONSES” (priority 2009, published 2011)
